From patent publication US5194371A, “Production of pradimicin antibiotics” (Bristol-Myers Squibb Company, priority 1991, dated 1993)

Columns and labels:
strain AB 1236 = assay: Antibiotic susceptibility of strain AB 1236 (antibiotic disks); assay type: cell-based, Actinomadura sp. AB 1236; conditions: 37° C., 4 days
Protocol: Antibiotic susceptibility of strain AB 1236 was tested using antibiotic disks (Tridisk, Eiken Chemical Co., Ltd.). The disks were placed onto the surface of yeast-glucose-malt agar (yeast extract 0.1%, glucose 1%, malt extract 0.1%, CaCl2.2H2 O 0.05% and agar 1.5%) which had been seeded by strain AB 1236 (4% inoculum), and the plates were then incubated at 37° C. for 4 days. Strain AB 1236 was resistant to 50 μg of fosfomycin and 300 U of polymixin B, and susceptible to 20 U of ampicillin, 1 μg of clavulanic acid, 2 μg of ticarcillin, 10 μg of cephalexin, 30 μg of tetracycline, 10 μg of chloramphenicol, 0.5 μg of erythromycin, 2 μg of josamycin, 2 μg of lincomycin, 5 μg of kanamycin, 5 μg of gentamicin, 5 μg of tobramycin, 2 μg of nalidixic acid, 2 μg of norfloxacin and 50 U of colistin.

Candida albicans A9540 = assay: In vivo efficacy against C. albicans A9540 systemic infection in mice; parameters: species or system male ICR mice infected with Candida albicans; conditions: A9540, iv, 504 h, i.v., single dose immediately after challenge, survival on day 21, read-out: PD50 (median protective dose)
Protocol: The in vivo efficacy of BMY-28960 was evaluated against Candida albicans A9540 systemic infection in male ICR mice (20-24 g body weight). Five mice are used for each dose level. Mice were challenged intravenously with 10 times the median lethal dose of the pathogen suspended in saline and BMY-28960 was intravenously administered once immediately after the challenge. The median protective dose (PD50) was calculated from survival rates recorded on day 21.

[1] = Tolerability following intravenous administration in ICR mice; assay type: in vivo; conditions: i.v., up to 600 mg/kg

O=C(N[C@H](CO)[C@H](O)c1ccc([N+](=O)[O-])cc1)C(Cl)Cl [chloramphenicol]
Antibiotic susceptibility of strain AB 1236 (strain AB 1236; disk 10 μg): susceptible

CCn1cc(C(=O)O)c(=O)c2ccc(C)nc21 [nalidixic acid]
Antibiotic susceptibility of strain AB 1236 (strain AB 1236; disk 2 μg): susceptible

CC1(C)S[C@@H]2[C@H](NC(=O)[C@H](N)c3ccccc3)C(=O)N2[C@H]1C(=O)O [ampicillin]
Antibiotic susceptibility of strain AB 1236 (strain AB 1236; disk 20 U): susceptible

polymixin B
Antibiotic susceptibility of strain AB 1236 (strain AB 1236; disk 300 U): resistant

CC[C@H]1OC(=O)[C@H](C)[C@@H](O[C@H]2C[C@@](C)(OC)[C@@H](O)[C@H](C)O2)[C@H](C)[C@@H](O[C@@H]2O[C@H](C)C[C@H](N(C)C)[C@H]2O)[C@](C)(O)C[C@@H](C)C(=O)[C@H](C)[C@@H](O)[C@]1(C)O [erythromycin]
Antibiotic susceptibility of strain AB 1236 (strain AB 1236; disk 0.5 μg): susceptible

CC1(C)S[C@@H]2[C@H](NC(=O)[C@H](C(=O)O)c3ccsc3)C(=O)N2[C@H]1C(=O)O [ticarcillin]
Antibiotic susceptibility of strain AB 1236 (strain AB 1236; disk 2 μg): susceptible

CN(C)C1C(=O)C(C(N)=O)=C(O)C2(O)C(=O)C3=C(O)c4c(O)cccc4C(C)(O)C3CC12 (stereo not shown) [tetracycline]
Antibiotic susceptibility of strain AB 1236 (strain AB 1236; disk 30 μg): susceptible

OC(Cn1cncn1)(Cn1cncn1)c1ccc(F)cc1F [Fluconazole]
ED50 (Candida albicans A9540): > 50 mg/kg

NC[C@H]1O[C@H](O[C@H]2[C@H](O)[C@@H](O[C@H]3O[C@H](CO)[C@@H](O)[C@H](N)[C@H]3O)[C@H](N)C[C@@H]2N)[C@H](N)C[C@@H]1O [tobramycin]
Antibiotic susceptibility of strain AB 1236 (strain AB 1236; disk 5 μg): susceptible

CCn1cc(C(=O)O)c(=O)c2cc(F)c(N3CCNCC3)cc21 [norfloxacin]
Antibiotic susceptibility of strain AB 1236 (strain AB 1236; disk 2 μg): susceptible

COc1cc(O)c2c(c1)C(=O)c1c(cc3c(c1O)-c1c(cc(C)c(C(=O)N[C@H](CO)C(=O)O)c1O)[C@H](O[C@@H]1O[C@H](C)[C@H](O)[C@H](O[C@@H]4OC[C@@H](O)[C@H](O)[C@H]4O)[C@H]1O)[C@H]3O)C2=O [BMY-28960, 4'-deamino-4'-axial-hydroxypradimicin FA-2]
ED50 (Candida albicans A9540): 6.7 mg/kg
Lethality and apparent side effects [1]: neither lethality nor apparent side effects were noted
Solubility in solvent (Solubility in solvent; Dimethyl sulfoxide, N,N-dimethylformamide and alkaline water): Soluble
Solubility in solvent (Solubility in solvent; Ethanol, methanol and acetone): Slightly soluble
Solubility in solvent (Solubility in solvent; Ethyl acetate, benzene, chloroform, acidic water, etc.): Isoluble

NC[C@H]1O[C@H](O[C@H]2[C@H](O)[C@@H](O[C@H]3O[C@H](CO)[C@@H](O)[C@H](N)[C@H]3O)[C@H](N)C[C@@H]2N)[C@H](O)[C@@H](O)[C@@H]1O [kanamycin]
Antibiotic susceptibility of strain AB 1236 (strain AB 1236; disk 5 μg): susceptible

C[C@@H]1O[C@@H]1P(=O)(O)O [fosfomycin]
Antibiotic susceptibility of strain AB 1236 (strain AB 1236; disk 50 μg): resistant

C[C@@H]1[C@H](O)[C@@H](C)/C=C/C=C/C=C/C=C/C=C/C=C/C=C/[C@H](O[C@@H]2O[C@H](C)[C@@H](O)[C@H](N)[C@@H]2O)C[C@@H]2O[C@](O)(C[C@@H](O)C[C@@H](O)[C@H](O)CC[C@@H](O)C[C@@H](O)CC(=O)O[C@H]1C)C[C@H](O)[C@H]2C(=O)O [Amphotericin B]
ED50 (Candida albicans A9540): 0.31 mg/kg

CN[C@@H]1[C@H](O[C@@H]2OC[C@@H](O)[C@H](O)[C@H]2O)[C@@H](O)[C@H](O[C@H]2c3cc(C)c(C(=O)N[C@H](C)C(=O)O)c(O)c3-c3c(cc4c(c3O)C(=O)c3cc(OC)cc(O)c3C4=O)[C@@H]2O)O[C@@H]1C [Pradimicin A]
ED50 (Candida albicans A9540): 10 mg/kg

O=C(O)[C@H]1/C(=C/CO)O[C@@H]2CC(=O)N21 [clavulanic acid]
Antibiotic susceptibility of strain AB 1236 (strain AB 1236; disk 1 μg): susceptible

josamycin
Antibiotic susceptibility of strain AB 1236 (strain AB 1236; disk 2 μg): susceptible

colistin
Antibiotic susceptibility of strain AB 1236 (strain AB 1236; disk 50 U): susceptible

gentamicin
Antibiotic susceptibility of strain AB 1236 (strain AB 1236; disk 5 μg): susceptible

CCC[C@@H]1C[C@@H](C(=O)N[C@@H]([C@H]2O[C@H](SC)[C@H](O)[C@@H](O)[C@H]2O)[C@@H](C)O)N(C)C1 [lincomycin]
Antibiotic susceptibility of strain AB 1236 (strain AB 1236; disk 2 μg): susceptible

CC1=C(C(=O)O)N2C(=O)[C@@H](NC(=O)[C@H](N)c3ccccc3)[C@H]2SC1 [cephalexin]
Antibiotic susceptibility of strain AB 1236 (strain AB 1236; disk 10 μg): susceptible
